Reference: patent publication EP0326331B1, “Substituted quinolines and cinnolines” (Dow AgroSciences LLC, priority 1988, dated 1989)

Assays:
Type in all cases: in vivo
[1] = test system: Twospotted spider mites (Tetranychus urticae Koch); assay: Mite/insect screen, SM; settings: Tetranychus urticae, foliar, percent mortality, foliar spray on squash, read-out: SM RESULTS %; for mortality at 200 ppm: rate 200 ppm; for mortality at 400 ppm: rate 400 ppm
Summary of the method: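 Compounds dissolved in 50:50 acetone/alcohol containing sulfonate/nonionic emulsifier blends, then diluted with water to the indicated concentrations. Leaves sprayed on both surfaces to runoff at 10 psi and dried one hour. Percent mortality scored after standard exposure periods.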

[2] = test system: Cercospora beticola (leaf spot); assay: Test 1 greenhouse foliar spray screen, leaf spot on sugar beet; settings: disease control rating, foliar spray on sugar beet, 400 ppm (+++ at 100 ppm)
[3] = test system: southern armyworm (Spodopetra eridania Cramer); assay: Mite/insect screen, SAW; settings: Spodoptera eridania, foliar, percent mortality, foliar spray on squash, read-out: SAW RESULTS %; for mortality at 200 ppm: rate 200 ppm; for mortality at 400 ppm: rate 400 ppm
Summary of the method: (§1)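 Formulation: acetone/alcohol 50:50 + sulfonate/nonionic emulsifiers, water-diluted to indicated concs. Spray both leaf surfaces to runoff, 10 psi; dry 1 h. Armyworm: 2 excised uninfested leaves in Petri dish. Score % mortality after standard exposure.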

[4] = test system: Venturia inaequalis (apple scab); assay: Test 1 greenhouse foliar spray screen, apple scab on apple seedling; settings: disease control rating, foliar spray on apple seedling, 400 ppm (+++ at 100 ppm)
[5] = test system: Pyricularia oryzae (rice blast); assay: whole plant or invertebrate; settings: disease control rating, foliar spray on rice, 400 ppm (+++ at 100 ppm)
[6] = test system: Puccinia recondita tritici (leaf rust); assay: Test 1 greenhouse foliar spray screen, leaf rust on wheat; settings: disease control rating, foliar spray on wheat, 400 ppm (+++ at 100 ppm)
[7] = test system: Botrytis cinerea (gray mold); assay: Test 1 greenhouse foliar spray screen, gray mold on grape berries; settings: disease control rating, spray on grape berries, 400 ppm (+++ at 100 ppm)
[8] = test system: melon aphids (Aphis gossypii Glover); assay: Mite/insect screen, MA; settings: Aphis gossypii, foliar, percent mortality, foliar spray on squash, read-out: MA RESULTS %; for mortality at 200 ppm: rate 200 ppm; for mortality at 400 ppm: rate 400 ppm
Summary of the method: as §1

[9] = test system: Septoria tritici (leaf blotch); assay: Test 1 greenhouse foliar spray screen, leaf blotch on wheat; settings: disease control rating, foliar spray on wheat, 400 ppm (+++ at 100 ppm)
corn rootworm = assay: Mite/insect screen, CRW; settings: percent mortality, read-out: CRW RESULTS %; for mortality at 12 ppm: CRW rate 12.00 ppm; for mortality at 24 ppm: CRW rate 24.00 ppm
Summary of the method: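 Percent mortality is evaluated once the standard exposure period ends. Test material is applied as a water dilution of an acetone/alcohol (50:50) stock carrying two sulfonate/nonionic emulsifiers (23 and 13 g per liter).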

[10] = test system: Pseudoperonospora cubensis (downy mildew); assay: Test 1 greenhouse foliar spray screen, downy mildew on squash; settings: disease control rating, foliar spray on squash, 400 ppm (+++ at 100 ppm)
[11] = test system: Erysiphe graminis tritici (powdery mildew); assay: Test 1 greenhouse foliar spray screen, powdery mildew on wheat; settings: disease control rating, foliar spray on wheat, 400 ppm (+++ at 100 ppm)

SMILES	mortality at 200 ppm [1]	LEAF SPOT [2]	mortality at 200 ppm [3]	APPL SCAB [4]	RICE BLAST [5]	LEAF RUST [6]	GRAY MOLD [7]	mortality at 200 ppm [8]	LEAF BLOT [9]	mortality at 12 ppm (corn rootworm)	DOWN MDEW [10]	POWD MDEW [11]	mortality at 400 ppm [1]	mortality at 400 ppm [3]	mortality at 400 ppm [8]	mortality at 24 ppm (corn rootworm)
Fc1cccc2c(NCCc3c[nH]c4ccccc34)ccnc12 [Example 176, 8-fluoro-N-[2-(1H-indol-3-yl)ethyl]-4-quinolinamine]	0%	+ (20-89% control at 400 ppm)	0%	- (0-19% control at 400 ppm)	+ (20-89% control at 400 ppm)	+ (20-89% control at 400 ppm)	- (0-19% control at 400 ppm)	0%	- (0-19% control at 400 ppm)	0%	++ (90-100% control at 400 ppm)	+ (20-89% control at 400 ppm)				
CC(=O)N(CCC1=CCCCC1)c1ccnc2c(C)cc(C)cc12 [Example 179, N-[2-(1-cyclohexenyl)ethyl]-N-(6,8-dimethyl-4-quinolinyl)acetamide]	0%	+ (20-89% control at 400 ppm)	0%	+ (20-89% control at 400 ppm)	- (0-19% control at 400 ppm)	- (0-19% control at 400 ppm)	- (0-19% control at 400 ppm)	0%	- (0-19% control at 400 ppm)	0%	++ (90-100% control at 400 ppm)	- (0-19% control at 400 ppm)	0%	0%	0%	0%
Fc1cccc2c(NCCc3ccccn3)ccnc12 [Example 180, 8-fluoro-N-[2-(2-pyridinyl)ethyl]-4-quinolinamine]	0%	+ (20-89% control at 400 ppm)	0%	- (0-19% control at 400 ppm)	+ (20-89% control at 400 ppm)	- (0-19% control at 400 ppm)	- (0-19% control at 400 ppm)	0%	+ (20-89% control at 400 ppm)	0%	++ (90-100% control at 400 ppm)	++ (90-100% control at 400 ppm)	0%	0%	0%	0%
Fc1cccc2c(NCCc3ccccc3)cc(NCCc3ccccc3)nc12 [Example 183, 8-fluoro-N,N'-bis(2-phenylethyl)-2,4-quinolinediamine]	0%	+ (20-89% control at 400 ppm)	0%	+ (20-89% control at 400 ppm)	++ (90-100% control at 400 ppm)	++ (90-100% control at 400 ppm)	- (0-19% control at 400 ppm)	0%	- (0-19% control at 400 ppm)	0%	+++ (90-100% control at 100 ppm)	- (0-19% control at 400 ppm)				
CC(CNc1cc(NCC(C)c2ccccc2)c2ccccc2n1)c1ccccc1 (centres unmarked) [Example 184, N,N'-bis(2-phenylpropyl)-2,4-quinolinediamine]	0%	- (0-19% control at 400 ppm)	0%	- (0-19% control at 400 ppm)	+ (20-89% control at 400 ppm)	++ (90-100% control at 400 ppm)	- (0-19% control at 400 ppm)	0%	- (0-19% control at 400 ppm)	0%	++ (90-100% control at 400 ppm)	- (0-19% control at 400 ppm)				
